According to patent publication US7906545B2, “Prodrugs of CC-1065 analogs” (priority 2002, dated 2011):

Key:
[1] = as compared with DC1
[2] = stability in aqueous solutions; format: physicochemical
carboxyl esterase = experiment: conversion of carbamate prodrug into parent drug by incubation in serum, plasma or with carboxyl esterase; format: in vitro ADME; conditions: plasma or with an enzyme such as carboxyl esterase
Excerpt: Thus, piperazino carbamate and 4-piperidino-piperidino carbamate protecting groups are enzyme-cleavable by enzymes such as carboxyl esterase, which occurs in serum and plasma. Phosphate protecting groups are cleavable by phosphatase enzymes such as alkaline phosphatase.

alkaline phosphatase = conditions: incubation with alkaline phosphatase
Method: Cells to be evaluated can be exposed to the compounds for 24 hours and the surviving fractions of cells measured in direct assays by known methods.

[3] = cited from earlier work
[4] = phenyl carbamate prodrug of adozelesin; cited from earlier work
[5] = vs doxorubicin, methotrexate and vincristine; cited from earlier work
mice = conditions: single intravenous dose of 12.5 μg/kg; cited from earlier work
[6] = system: endogenous alkaline phosphatase; conditions: presumably hydrolysis by endogenous alkaline phosphatase; cited from earlier work

CN1CCN(C(=O)Oc2cc3c(c4ccccc24)[C@H](CCl)CN3C(=O)c2cc3cc(NC(=O)c4cc5cc(NC(=O)CCS)ccc5[nH]4)ccc3[nH]2)CC1 [DC2]
water solubility [1]: enhanced water solubility
stability in aqueous solutions [2]: extremely stable
conversion into the parent drug DC1 (carboxyl esterase): can be converted into the parent drug DC1

O=C(CCS)Nc1ccc2[nH]c(C(=O)Nc3ccc4[nH]c(C(=O)N5C[C@@H](CCl)c6c5cc(OP(=O)(O)O)c5ccccc65)cc4c3)cc2c1 [DC4]
water solubility [1]: soluble
stability in aqueous solutions [2]: extremely stable
conversion into the parent drug DC1 (alkaline phosphatase): converts it into the parent drug DC1

CCN(CC)c1ccc2cc(C(=O)Nc3ccc4[nH]c(C(=O)N5C[C@@H](CCl)c6c5cc(OC(=O)Nc5ccccc5)c5[nH]cc(C)c65)cc4c3)oc2c1 [Carzelesin]
systemic toxicity in clinical evaluation [3]: high systemic toxicity
therapeutic effects in clinical evaluation [3]: poor therapeutic effects
lability of prodrug [4]: too labile for therapeutic use

O=C(CCS)Nc1ccc2[nH]c(C(=O)Nc3ccc4[nH]c(C(=O)N5C[C@@H](CCl)c6c5cc(OC(=O)N5CCC(N7CCCCC7)CC5)c5ccccc65)cc4c3)cc2c1 [DC3]
water solubility [1]: enhanced water solubility
stability in aqueous solutions [2]: extremely stable
conversion into the parent drug DC1 (carboxyl esterase): can be converted into the parent drug DC1

COc1c(O)c2c(c3cc(C(=O)N4CCc5c4c(O)c(OC)c4[nH]c(C(=O)N6CC7CC78C6=CC(=O)c6[nH]cc(C)c68)cc54)[nH]c13)CCN2C(N)=O (centres unmarked) [CC-1065]
potency in vitro relative to commonly used anti-cancer drugs [5]: about 1000 fold
delayed toxicity in mice (mice): delayed hepatotoxicity leading to mortality on day 50

COc1cc([C@@H]2c3cc4c(cc3[C@@H](O[C@@H]3O[C@@H]5CO[C@@H](C)O[C@H]5[C@H](O)[C@H]3O)[C@H]3COC(=O)[C@H]23)OCO4)cc(OC)c1OP(=O)(O)O [etoposide phosphate]
conversion in vivo into active drug [6]: rapidly converted into active drug

Cc1c[nH]c2c1[C@@]13C[C@@H]1CN(C(=O)c1cc4cc(NC(=O)c5cc6ccccc6o5)ccc4[nH]1)C3=CC2=O [Adozelesin]
systemic toxicity in clinical evaluation [3]: high systemic toxicity
therapeutic effects in clinical evaluation [3]: poor therapeutic effects
